Measurements published in patent US20060293307A1, “Oxazolidinone derivatives as antimicrobials” (priority 2002, published 2006).
In brackets after ≈: the same amount, converted by molar mass.

Columns and labels:
S. aureus ATCC 25923 = assay: MIC, agar incorporation method; format: cell-based, Staphylococcus aureus; conditions: Staphylococcus aureus, ATCC25923; S. No. 1, organism cell empty; read-out: MIC
S. aureus SG 511 = assay: MIC, agar incorporation method; format: cell-based, Staphylococcus aureus; conditions: Staphylococcus aureus, SG511
S. aureus (MRSA) 21299 = assay: MIC, agar incorporation method; format: cell-based, Staphylococcus aureus; conditions: Staphylococcus aureus; S. No. 5, S. aureus (MRSA) 21299; read-out: MIC
S. aureus (MRSA) ST450 = assay: MIC, agar incorporation method; format: cell-based, Staphylococcus aureus; conditions: Staphylococcus aureus; S. No. 6, S. aureus (MRSA) ST450; read-out: MIC
[1] = system: S. aureus (MRSA 33) Cipro R; assay: MIC, agar incorporation method; format: cell-based, Staphylococcus aureus; conditions: Staphylococcus aureus; S. No. 7, S. aureus (MRSA 33) Cipro R; read-out: MIC
S. aureus (Smith 49951) = assay: MIC, agar incorporation method; format: cell-based, Staphylococcus aureus; conditions: Staphylococcus aureus; S. No. 9, S. aureus (Smith 49951); read-out: MIC
S. epidermidis 358 = assay: MIC, agar incorporation method; format: cell-based, Staphylococcus epidermidis; conditions: Staphylococcus epidermidis; S. No. 14, S. epidermidis 358; read-out: MIC
S. haemo ATCC 29970 = assay: MIC, agar incorporation method; format: cell-based
E. faecalis 21777 = assay: MIC, agar incorporation method; format: cell-based; conditions: Enterococcus faecalis; S. No. 18, E. faecalis 21777; read-out: MIC
E. faecalis SP 346 (VRE) = assay: MIC, agar incorporation method; format: cell-based; conditions: Enterococcus faecalis; S. No. 20, E. faecalis SP 346 (VRE); read-out: MIC
E. faecium 398(VRE) = assay: MIC, agar incorporation method; format: cell-based, Enterococcus faecium; conditions: Enterococcus faecium; S. No. 22, E. faecium 398(VRE); read-out: MIC
K. oxytoca 49131 = assay: MIC, agar incorporation method; format: cell-based; conditions: Klebsiella oxytoca; S. No. 27, K. oxytoca 49131; read-out: MIC
Acinetobacter 9956 = assay: MIC, agar incorporation method; format: cell-based; conditions: S. No. 30, Acinetobacter 9956; read-out: MIC
S. pneumoniae AB-3 = assay: MIC, agar incorporation method; format: cell-based, Streptococcus pneumoniae; conditions: Streptococcus pneumoniae, AB3; S. No. 32, S. pneumoniae AB-3; read-out: MIC
S. pneumoniae CS1221 = assay: MIC, agar incorporation method; format: cell-based, Streptococcus pneumoniae; conditions: Streptococcus pneumoniae; S. No. 34, S. pneumoniae CS1221; read-out: MIC
S. pneumoniae AB 31 = assay: MIC, agar incorporation method; format: cell-based, Streptococcus pneumoniae; conditions: Streptococcus pneumoniae, AB31
S. pneumoniae AB 14 = assay: MIC, agar incorporation method; format: cell-based, Streptococcus pneumoniae; conditions: Streptococcus pneumoniae, AB14
S. pneumoniae AB 17 = assay: MIC, agar incorporation method; format: cell-based, Streptococcus pneumoniae; conditions: Streptococcus pneumoniae, AB17; S. No. 40, S. pneumoniae AB 17; read-out: MIC
S. pneumoniae AB 23 = assay: MIC, agar incorporation method; format: cell-based, Streptococcus pneumoniae; conditions: Streptococcus pneumoniae, AB23
S. pneumoniae CS 1687 = assay: MIC, agar incorporation method; format: cell-based, Streptococcus pneumoniae; conditions: Streptococcus pneumoniae, CS1687
S. pneumoniae ATCC 49619 = assay: MIC, agar incorporation method; format: cell-based, Streptococcus pneumoniae; conditions: Streptococcus pneumoniae, ATCC49619; S. No. 48, S. pneumoniae ATCC 49619; read-out: MIC
S. pyogenes 19615 = assay: MIC, agar incorporation method; format: cell-based, Streptococcus pyogenes; conditions: Streptococcus pyogenes, 19615
S. pyogenes 25147 = assay: MIC, agar incorporation method; format: cell-based, Streptococcus pyogenes; conditions: Streptococcus pyogenes, 25147
S. pneumoniae 1256 = assay: MIC, agar incorporation method; format: cell-based, Streptococcus pneumoniae; conditions: Streptococcus pneumoniae; S. No. 56, S. pneumoniae 1256; read-out: MIC
H. influenzae ATCC 49247 = assay: MIC against Haemophilus strains; format: cell-based; conditions: Haemophilus influenzae, ATCC49247; s. No. 2, H. influenzae ATCC 49247; read-out: MIC
H. influenzae βIac = assay: MIC against Haemophilus strains; format: cell-based; conditions: Haemophilus influenzae; s. No. 3, H. influenzae βIac; read-out: MIC
M. tuberculosis M-66 = assay: MIC against M. tuberculosis strains, agar dilution; format: cell-based, Mycobacterium tuberculosis; conditions: Mycobacterium tuberculosis, M66, S. No. 08 Mt-, Middle Brook 7H10 + OADC, 37° C., 14-21 days, read-out: MIC
M. tuberculosis V-591 = assay: MIC against M. tuberculosis strains, agar dilution; format: cell-based, Mycobacterium tuberculosis; conditions: Mycobacterium tuberculosis, V591, S. No. 13 Mt-, Middle Brook 7H10 + OADC, 37° C., 14-21 days, read-out: MIC
M. tuberculosis M-149 = assay: MIC against M. tuberculosis strains, agar dilution; format: cell-based, Mycobacterium tuberculosis; conditions: Mycobacterium tuberculosis, M149, S. No. 15 Mt-, Middle Brook 7H10 + OADC, 37° C., 14-21 days, read-out: MIC
M. tuberculosis PC = assay: MIC against M. tuberculosis strains, agar dilution; format: cell-based, Mycobacterium tuberculosis; conditions: Mycobacterium tuberculosis, S. No. 18 Mt-, Middle Brook 7H10 + OADC, 37° C., 14-21 days, read-out: MIC
[2] = system: M. intracellulare ATCC 35761; assay: MIC against MAC strains, agar dilution; format: cell-based; conditions: Mycobacterium intracellulare, ATCC35761; S. No. 07 Mi-2, M. intracellulare ATCC 35761; Middle Brook 7H10 + OADC, 37° C., 14-21 days; read-out: MIC
[3] = system: M. avium intracellulare 356/97; assay: MIC against MAC strains, agar dilution; format: cell-based; conditions: Mycobacterium avium; S. No. 10 Mai-1, M. avium intracellulare 356/97; Middle Brook 7H10 + OADC, 37° C., 14-21 days; read-out: MIC

CC(=O)NC[C@H]1CN(c2ccc(N3CCN(c4ccc([N+](=O)[O-])s4)CC3)c(F)c2)C(=O)O1 [Compound No. 1, (S)—N-[[3-[3-Fluoro-4-[4-(5-nitro-2-thienyl)-1-piperazinyl]phenyl]-2-oxo-5-oxazolidinyl]methyl]acetamide]
MIC (S. aureus ATCC 25923): 0.25 µg/mL (≈ 0.539 µM)
MIC (S. aureus SG 511): 0.125 µg/mL (≈ 0.27 µM)
MIC (S. aureus (MRSA) 21299): 0.25 µg/mL (≈ 0.539 µM)
MIC (S. aureus (MRSA) ST450): 0.25 µg/mL (≈ 0.539 µM)
MIC [1]: 0.25 µg/mL (≈ 0.539 µM)
MIC (S. aureus (Smith 49951)): 0.25 µg/mL (≈ 0.539 µM)
MIC (S. epidermidis 358): 0.25 µg/mL (≈ 0.539 µM)
MIC (S. haemo ATCC 29970): 0.125 µg/mL (≈ 0.27 µM)
MIC (E. faecalis 21777): 0.25 µg/mL (≈ 0.539 µM)
MIC (E. faecalis SP 346 (VRE)): 0.25 µg/mL (≈ 0.539 µM)
MIC (E. faecium 398(VRE)): 0.25 µg/mL (≈ 0.539 µM)
MIC (K. oxytoca 49131): > 16 µg/mL
MIC (Acinetobacter 9956): > 16 µg/mL
MIC (S. pneumoniae AB-3): 0.06 µg/mL (≈ 0.129 µM)
MIC (S. pneumoniae CS1221): 0.06 µg/mL (≈ 0.129 µM)
MIC (S. pneumoniae AB 31): 0.125 µg/mL (≈ 0.27 µM)
MIC (S. pneumoniae AB 14): 0.125 µg/mL (≈ 0.27 µM)
MIC (S. pneumoniae AB 17): 0.06 µg/mL (≈ 0.129 µM)
MIC (S. pneumoniae AB 23): 0.125 µg/mL (≈ 0.27 µM)
MIC (S. pneumoniae CS 1687): 0.125 µg/mL (≈ 0.27 µM)
MIC (S. pneumoniae ATCC 49619): 0.06 µg/mL (≈ 0.129 µM)
MIC (S. pyogenes 19615): 0.125 µg/mL (≈ 0.27 µM)
MIC (S. pyogenes 25147): 0.125 µg/mL (≈ 0.27 µM)
MIC (S. pneumoniae 1256): 0.25 µg/mL (≈ 0.539 µM)
MIC (H. influenzae ATCC 49247): 8 µg/mL (≈ 17.3 µM)
MIC (H. influenzae βIac): 8 µg/mL (≈ 17.3 µM)
MIC (M. tuberculosis M-66): > 32 µg/mL
MIC (M. tuberculosis V-591): 0.5 µg/mL
MIC (M. tuberculosis M-149): 0.25 µg/mL
MIC (M. tuberculosis PC): 0.25 µg/mL
MIC [2]: < 0.12 µg/mL
MIC [3]: 0.25 µg/mL
